# In ChEMBL document CHEMBL1148131, “Efficacy of scopadulcic acid A against Plasmodium falciparum in vitro” (J Nat Prod, 2002):
# Experiments:
# Type in all cases: functional, organism-based
# [1] = system: Plasmodium falciparum; assay: Antimalarial activity against multidrug-resistant Plasmodium falciparum TM91C235 after 24 hrs by [3H]hypoxanthine uptake
# [2] = system: Plasmodium falciparum; assay: Antimalarial activity against Plasmodium falciparum W2 after 24 hrs by [3H]hypoxanthine uptake
# [3] = system: Plasmodium falciparum; assay: Antimalarial activity against Plasmodium falciparum D6 after 24 hrs by [3H]hypoxanthine uptake
SMILES,IC50 [1] [µM],IC50 [2] [µM],IC50 [3] [µM]
OC(c1cc(C(F)(F)F)nc2c(C(F)(F)F)cccc12)C1CCCCN1 (centres undefined) [MEFLOQUINE],0.059,–,–
C[C@]12CC[C@]3(C1)[C@H](CC2=O)C[C@@H](OC(=O)c1ccccc1)[C@H]1[C@@](CO)(C(=O)O)CCC[C@@]13C [SCOPADULCIC ACID A],23,19,27
